Test results reported in US20180221369A1, “COMPOSITIONS AND METHODS FOR TREATING FIBROSING DISORDERS AND CANCER” (Cedars-Sinai Medical Center, priority 2014, published 2018).

What was measured:
[1] = system: normal stellate cells (hNP); conditions: SDF-1 0.025 μM, 2 h, AMD3100 5-50 μM 60 minutes
Description: (§1) The migration assays were performed by using transwell migration assays with polycarbonate membrane inserts with 8 μm pore size that is optimal for fibroblast-like cell migration (Corning Incorporated, NY, cat #3422). Stellate cells were treated with siRNA (100 nM) for 48 h, or with increasing concentrations of AMD3100 (5 μM-50 μM) or INNO-406 (10 nM-100 nM) for 60 minutes. Then, cells were placed in the migration upper chambers, in the presence or absence of SDF-1 (0.025 μM) with 2% FBS in the lower chambers. After 2 h of incubation, cells migrated to the lower chamber were counted, and the chemotactic index was determined as follows:
(§2) (number of cells migrating to SDF-1 chemokine)/(number of cells migrating to medium alone)
(§3) To distinguish chemotaxis versus chemokinesis, a control checkerboard analysis was performed.

[2] = system: chronic pancreatitis stellate cells (hCP); test: Transwell migration assay with SDF-1, chronic pancreatitis stellate cells; type: cell-based, human; conditions: SDF-1 0.025 μM, 2 h; siRNA 100 nM 48 h, AMD3100 5-50 μM or INNO-406 10-100 nM 60 minutes
Description: as §1, §2, §3

[3] = 120 mg INNO-406/kg per day orally to mice; estimated according to previously described pharmacokinetic studies; cited from earlier work
[4] = system: cerulein-induced pancreatic fibrosis; test: Cerulein-induced pancreatic fibrosis (chronic pancreatitis) mouse model, Picro-Sirius Red quantitation; type: in vivo, C57BL/6J mice; conditions: cerulein plus 120 mg INNO-406/kg per day oral gavage for 6 weeks; cerulein alone 16.39+/−3.08%, untreated 2.00+/−0.84%
Description: There is no optimal animal model available for human pancreatitis-induced fibrosis, to date. However, a most commonly used experimental model of chronic pancreatitis (CP) partially recapitulating human disease is repeated injection of cerulein into mice (Ulmasov, B. et al. Am J Pathol. 183, 692-708 (2013)). C57BL/6 is the most frequently used mouse strain for this type of biomedical research. In our current experiments, C57BL/6J mice (2 months old male and female) were divided into 3 groups (each group consisted of 15 animals) as follows: (1) untreated mice (saline only); (2) mice treated with cerulein for 6 weeks (50 μg/kg hourly, 6 hourly injections in one day constituted one treatment, twice-weekly); (3) mice treated with cerulein (as above) plus 120 mg INNO-406/kg per day for 6 weeks (oral gavage). When 120 mg INNO-406/kg per day is administrated orally to the mice, the concentration of INNO-406 in the soft tissues is estimated to be 0.24 μM according to pharmacokinetic studies described previously (Kimura, S. et al. Blood., 106, 3948-3954 (2005); Yokota, A, et al. Blood, 109, 306-314 (2007)). […] Picro sirius red quantitation were performed using Leica Biosystem Tissue IA Optimizer web-based program that measures positive stained intensity per area at 10× magnification. […]

Compound: c1cc(CN2CCCNCCNCCCNCC2)ccc1CN1CCCNCCNCCCNCC1 [AMD3100]
- SDF-1/CXCR4-induced chemotaxis (chemotactic index) [1]: could be blocked
- SDF-1/CXCR4-induced chemotaxis (chemotactic index) [2]: could be blocked

Compound: Cc1ccc(NC(=O)c2ccc(CN3CC[C@H](N(C)C)C3)c(C(F)(F)F)c2)cc1Nc1nccc(-c2cncnc2)n1 [INNO-406, Bafetinib]
- concentration of INNO-406 in the soft tissues [3]: 240 nM
- pancreatic fibrosis (Picro-Sirius Red positive stained area per total area) [4]: 7.50+/−4.77%
